Patent US10010545B1, “Antibiotic compositions and methods of use” (University of South Florida, priority 2013, dated 2018)

Tests used:
Pseudomonas aeruginosa = experiment: Growth testing against ESKAPE pathogens: Pseudomonas aeruginosa; type: cell-based; set-up: key: Growth; X: No Growth
Procedure: (§1) Six analogs (FIG. 2) of the ciprofloxacin-N thiolated β-lactam were successfully synthesized. All these compounds were then tested against ESKAPE pathogens for bioactivity. The ESKAPE pathogens are a collection of six deadly superbugs, Enterococcus faecium, Staphylococcus aureus, Klebsiella pneumoniae, Acinetobacter baumannii, Pseudomonas aeruginosa, and Enterobacter species. […] G denotes growth and X denotes no growth in the tables.

Staphylococcus aureus = experiment: Growth testing against ESKAPE pathogens: Staphylococcus aureus; type: cell-based; set-up: key to Activity against Staphylococcus aureus (growth observed): Growth; X: No Growth
Procedure: as §1

Acinetobacter baumannii = experiment: Growth testing against ESKAPE pathogens: Acinetobacter baumannii; type: cell-based; set-up: key: Growth; X: No Growth
Procedure: as §1

Klebesiella pneumonia = experiment: Growth testing against ESKAPE pathogens: Klebesiella pneumonia; type: cell-based, Klebsiella pneumoniae; set-up: key: Growth; X: No Growth
Procedure: as §1

Enterococcus faecium = experiment: Growth testing against ESKAPE pathogens: Enterococcus faecium; type: cell-based; set-up: key: Growth; X: No Growth
Procedure: as §1

CCCCCC(=O)N1CCN(c2cc3c(cc2F)c(=O)c(C(=O)OC2C(=O)N(SC)C2c2ccccc2)cn3C2CC2)CC1 (stereo not drawn) [Lactam 126]
G: Activity against Pseudomonas aeruginosa (growth observed) (Pseudomonas aeruginosa; 1 μg/ml) | Activity against Pseudomonas aeruginosa (growth observed) (Pseudomonas aeruginosa; 2 μg/ml) | Activity against Pseudomonas aeruginosa (growth observed) (Pseudomonas aeruginosa; 3 μg/ml) | Activity against Pseudomonas aeruginosa (growth observed) (Pseudomonas aeruginosa; 4 μg/ml) | Activity against Pseudomonas aeruginosa (growth observed) (Pseudomonas aeruginosa; 5 μg/ml) | Activity against Pseudomonas aeruginosa (growth observed) (Pseudomonas aeruginosa; 6 μg/ml) | Activity against Pseudomonas aeruginosa (growth observed) (Pseudomonas aeruginosa; 7 μg/ml) | Activity against Pseudomonas aeruginosa (growth observed) (Pseudomonas aeruginosa; 8 μg/ml) | Activity against Pseudomonas aeruginosa (growth observed) (Pseudomonas aeruginosa; 9 μg/ml) | Activity against Pseudomonas aeruginosa (growth observed) (Pseudomonas aeruginosa; 10 μg/ml) | Activity against Pseudomonas aeruginosa (growth observed) (Pseudomonas aeruginosa; 25 μg/ml) | Activity against Staphylococcus aureus (growth observed) (Staphylococcus aureus; 1 μg/ml) | Activity against Staphylococcus aureus (growth observed) (Staphylococcus aureus; 2 μg/ml) | Activity against Staphylococcus aureus (growth observed) (Staphylococcus aureus; 3 μg/ml) | Activity against Staphylococcus aureus (growth observed) (Staphylococcus aureus; 4 μg/ml) | Activity against Staphylococcus aureus (growth observed) (Staphylococcus aureus; 5 μg/ml) | Activity against Staphylococcus aureus (growth observed) (Staphylococcus aureus; 6 μg/ml) | Activity against Staphylococcus aureus (growth observed) (Staphylococcus aureus; 7 μg/ml) | Activity against Staphylococcus aureus (growth observed) (Staphylococcus aureus; 8 μg/ml) | Activity against Staphylococcus aureus (growth observed) (Staphylococcus aureus; 9 μg/ml) | Activity against Staphylococcus aureus (growth observed) (Staphylococcus aureus; 10 μg/ml) | Activity against Staphylococcus aureus (growth observed) (Staphylococcus aureus; 25 μg/ml) | Activity against Acinetobacter baumannii (growth observed) (Acinetobacter baumannii; 1 μg/ml) | Activity against Acinetobacter baumannii (growth observed) (Acinetobacter baumannii; 2 μg/ml) | Activity against Acinetobacter baumannii (growth observed) (Acinetobacter baumannii; 3 μg/ml) | Activity against Acinetobacter baumannii (growth observed) (Acinetobacter baumannii; 4 μg/ml) | Activity against Acinetobacter baumannii (growth observed) (Acinetobacter baumannii; 5 μg/ml) | Activity against Acinetobacter baumannii (growth observed) (Acinetobacter baumannii; 6 μg/ml) | Activity against Acinetobacter baumannii (growth observed) (Acinetobacter baumannii; 7 μg/ml) | Activity against Acinetobacter baumannii (growth observed) (Acinetobacter baumannii; 8 μg/ml) | Activity against Acinetobacter baumannii (growth observed) (Acinetobacter baumannii; 9 μg/ml) | Activity against Acinetobacter baumannii (growth observed) (Acinetobacter baumannii; 10 μg/ml) | Activity against Acinetobacter baumannii (growth observed) (Acinetobacter baumannii; 25 μg/ml) | Activity against Klebesiella pneumonia (growth observed) (Klebesiella pneumonia; 1 μg/ml) | Activity against Klebesiella pneumonia (growth observed) (Klebesiella pneumonia; 2 μg/ml) | Activity against Klebesiella pneumonia (growth observed) (Klebesiella pneumonia; 3 μg/ml) | Activity against Klebesiella pneumonia (growth observed) (Klebesiella pneumonia; 4 μg/ml) | Activity against Klebesiella pneumonia (growth observed) (Klebesiella pneumonia; 5 μg/ml) | Activity against Klebesiella pneumonia (growth observed) (Klebesiella pneumonia; 6 μg/ml) | Activity against Klebesiella pneumonia (growth observed) (Klebesiella pneumonia; 7 μg/ml) | Activity against Klebesiella pneumonia (growth observed) (Klebesiella pneumonia; 8 μg/ml) | Activity against Klebesiella pneumonia (growth observed) (Klebesiella pneumonia; 9 μg/ml) | Activity against Klebesiella pneumonia (growth observed) (Klebesiella pneumonia; 10 μg/ml) | Activity against Klebesiella pneumonia (growth observed) (Klebesiella pneumonia; 25 μg/ml) | Activity against Enterococcus faecium (growth observed) (Enterococcus faecium; 1 μg/ml) | Activity against Enterococcus faecium (growth observed) (Enterococcus faecium; 2 μg/ml) | Activity against Enterococcus faecium (growth observed) (Enterococcus faecium; 3 μg/ml) | Activity against Enterococcus faecium (growth observed) (Enterococcus faecium; 4 μg/ml) | Activity against Enterococcus faecium (growth observed) (Enterococcus faecium; 5 μg/ml) | Activity against Enterococcus faecium (growth observed) (Enterococcus faecium; 6 μg/ml) | Activity against Enterococcus faecium (growth observed) (Enterococcus faecium; 7 μg/ml) | Activity against Enterococcus faecium (growth observed) (Enterococcus faecium; 8 μg/ml) | Activity against Enterococcus faecium (growth observed) (Enterococcus faecium; 9 μg/ml) | Activity against Enterococcus faecium (growth observed) (Enterococcus faecium; 10 μg/ml) | Activity against Enterococcus faecium (growth observed) (Enterococcus faecium; 25 μg/ml)

CCCCCCC(=O)N1CCN(c2cc3c(cc2F)c(=O)c(C(=O)OC2C(=O)N(SC)C2c2ccccc2)cn3C2CC2)CC1 (stereo not drawn) [Lactam 127]
G: Activity against Pseudomonas aeruginosa (growth observed) (Pseudomonas aeruginosa; 1 μg/ml) | Activity against Pseudomonas aeruginosa (growth observed) (Pseudomonas aeruginosa; 2 μg/ml) | Activity against Pseudomonas aeruginosa (growth observed) (Pseudomonas aeruginosa; 3 μg/ml) | Activity against Pseudomonas aeruginosa (growth observed) (Pseudomonas aeruginosa; 4 μg/ml) | Activity against Pseudomonas aeruginosa (growth observed) (Pseudomonas aeruginosa; 5 μg/ml) | Activity against Pseudomonas aeruginosa (growth observed) (Pseudomonas aeruginosa; 6 μg/ml) | Activity against Pseudomonas aeruginosa (growth observed) (Pseudomonas aeruginosa; 7 μg/ml) | Activity against Pseudomonas aeruginosa (growth observed) (Pseudomonas aeruginosa; 8 μg/ml) | Activity against Pseudomonas aeruginosa (growth observed) (Pseudomonas aeruginosa; 9 μg/ml) | Activity against Pseudomonas aeruginosa (growth observed) (Pseudomonas aeruginosa; 10 μg/ml) | Activity against Pseudomonas aeruginosa (growth observed) (Pseudomonas aeruginosa; 25 μg/ml) | Activity against Staphylococcus aureus (growth observed) (Staphylococcus aureus; 1 μg/ml) | Activity against Staphylococcus aureus (growth observed) (Staphylococcus aureus; 2 μg/ml) | Activity against Staphylococcus aureus (growth observed) (Staphylococcus aureus; 3 μg/ml) | Activity against Staphylococcus aureus (growth observed) (Staphylococcus aureus; 4 μg/ml) | Activity against Staphylococcus aureus (growth observed) (Staphylococcus aureus; 5 μg/ml) | Activity against Staphylococcus aureus (growth observed) (Staphylococcus aureus; 6 μg/ml) | Activity against Staphylococcus aureus (growth observed) (Staphylococcus aureus; 7 μg/ml) | Activity against Staphylococcus aureus (growth observed) (Staphylococcus aureus; 8 μg/ml) | Activity against Staphylococcus aureus (growth observed) (Staphylococcus aureus; 9 μg/ml) | Activity against Staphylococcus aureus (growth observed) (Staphylococcus aureus; 10 μg/ml) | Activity against Staphylococcus aureus (growth observed) (Staphylococcus aureus; 25 μg/ml) | Activity against Acinetobacter baumannii (growth observed) (Acinetobacter baumannii; 1 μg/ml) | Activity against Acinetobacter baumannii (growth observed) (Acinetobacter baumannii; 2 μg/ml) | Activity against Acinetobacter baumannii (growth observed) (Acinetobacter baumannii; 3 μg/ml) | Activity against Acinetobacter baumannii (growth observed) (Acinetobacter baumannii; 4 μg/ml) | Activity against Acinetobacter baumannii (growth observed) (Acinetobacter baumannii; 5 μg/ml) | Activity against Acinetobacter baumannii (growth observed) (Acinetobacter baumannii; 6 μg/ml) | Activity against Acinetobacter baumannii (growth observed) (Acinetobacter baumannii; 7 μg/ml) | Activity against Acinetobacter baumannii (growth observed) (Acinetobacter baumannii; 8 μg/ml) | Activity against Acinetobacter baumannii (growth observed) (Acinetobacter baumannii; 9 μg/ml) | Activity against Acinetobacter baumannii (growth observed) (Acinetobacter baumannii; 10 μg/ml) | Activity against Acinetobacter baumannii (growth observed) (Acinetobacter baumannii; 25 μg/ml) | Activity against Klebesiella pneumonia (growth observed) (Klebesiella pneumonia; 1 μg/ml) | Activity against Klebesiella pneumonia (growth observed) (Klebesiella pneumonia; 2 μg/ml) | Activity against Klebesiella pneumonia (growth observed) (Klebesiella pneumonia; 3 μg/ml) | Activity against Klebesiella pneumonia (growth observed) (Klebesiella pneumonia; 4 μg/ml) | Activity against Klebesiella pneumonia (growth observed) (Klebesiella pneumonia; 5 μg/ml) | Activity against Klebesiella pneumonia (growth observed) (Klebesiella pneumonia; 6 μg/ml) | Activity against Klebesiella pneumonia (growth observed) (Klebesiella pneumonia; 7 μg/ml) | Activity against Klebesiella pneumonia (growth observed) (Klebesiella pneumonia; 8 μg/ml) | Activity against Klebesiella pneumonia (growth observed) (Klebesiella pneumonia; 9 μg/ml) | Activity against Klebesiella pneumonia (growth observed) (Klebesiella pneumonia; 10 μg/ml) | Activity against Klebesiella pneumonia (growth observed) (Klebesiella pneumonia; 25 μg/ml) | Activity against Enterococcus faecium (growth observed) (Enterococcus faecium; 1 μg/ml) | Activity against Enterococcus faecium (growth observed) (Enterococcus faecium; 2 μg/ml) | Activity against Enterococcus faecium (growth observed) (Enterococcus faecium; 3 μg/ml) | Activity against Enterococcus faecium (growth observed) (Enterococcus faecium; 4 μg/ml) | Activity against Enterococcus faecium (growth observed) (Enterococcus faecium; 5 μg/ml) | Activity against Enterococcus faecium (growth observed) (Enterococcus faecium; 6 μg/ml) | Activity against Enterococcus faecium (growth observed) (Enterococcus faecium; 7 μg/ml) | Activity against Enterococcus faecium (growth observed) (Enterococcus faecium; 8 μg/ml) | Activity against Enterococcus faecium (growth observed) (Enterococcus faecium; 9 μg/ml) | Activity against Enterococcus faecium (growth observed) (Enterococcus faecium; 10 μg/ml) | Activity against Enterococcus faecium (growth observed) (Enterococcus faecium; 25 μg/ml)

CCCCCC(=O)N1CCN(c2cc3c(cc2F)c(=O)c(C(=O)OC2C(=O)N(c4ccc(OC)cc4)C2c2ccccc2Cl)cn3C2CC2)CC1 (stereo not drawn) [Lactam 128]
G: Activity against Pseudomonas aeruginosa (growth observed) (Pseudomonas aeruginosa; 1 μg/ml) | Activity against Pseudomonas aeruginosa (growth observed) (Pseudomonas aeruginosa; 2 μg/ml) | Activity against Pseudomonas aeruginosa (growth observed) (Pseudomonas aeruginosa; 3 μg/ml) | Activity against Pseudomonas aeruginosa (growth observed) (Pseudomonas aeruginosa; 4 μg/ml) | Activity against Pseudomonas aeruginosa (growth observed) (Pseudomonas aeruginosa; 5 μg/ml) | Activity against Pseudomonas aeruginosa (growth observed) (Pseudomonas aeruginosa; 6 μg/ml) | Activity against Pseudomonas aeruginosa (growth observed) (Pseudomonas aeruginosa; 7 μg/ml) | Activity against Pseudomonas aeruginosa (growth observed) (Pseudomonas aeruginosa; 8 μg/ml) | Activity against Pseudomonas aeruginosa (growth observed) (Pseudomonas aeruginosa; 9 μg/ml) | Activity against Pseudomonas aeruginosa (growth observed) (Pseudomonas aeruginosa; 10 μg/ml) | Activity against Pseudomonas aeruginosa (growth observed) (Pseudomonas aeruginosa; 25 μg/ml) | Activity against Staphylococcus aureus (growth observed) (Staphylococcus aureus; 1 μg/ml) | Activity against Staphylococcus aureus (growth observed) (Staphylococcus aureus; 2 μg/ml) | Activity against Staphylococcus aureus (growth observed) (Staphylococcus aureus; 3 μg/ml) | Activity against Staphylococcus aureus (growth observed) (Staphylococcus aureus; 4 μg/ml) | Activity against Staphylococcus aureus (growth observed) (Staphylococcus aureus; 5 μg/ml) | Activity against Staphylococcus aureus (growth observed) (Staphylococcus aureus; 6 μg/ml) | Activity against Staphylococcus aureus (growth observed) (Staphylococcus aureus; 7 μg/ml) | Activity against Staphylococcus aureus (growth observed) (Staphylococcus aureus; 8 μg/ml) | Activity against Staphylococcus aureus (growth observed) (Staphylococcus aureus; 9 μg/ml) | Activity against Staphylococcus aureus (growth observed) (Staphylococcus aureus; 10 μg/ml) | Activity against Staphylococcus aureus (growth observed) (Staphylococcus aureus; 25 μg/ml) | Activity against Acinetobacter baumannii (growth observed) (Acinetobacter baumannii; 1 μg/ml) | Activity against Acinetobacter baumannii (growth observed) (Acinetobacter baumannii; 2 μg/ml) | Activity against Acinetobacter baumannii (growth observed) (Acinetobacter baumannii; 3 μg/ml) | Activity against Acinetobacter baumannii (growth observed) (Acinetobacter baumannii; 4 μg/ml) | Activity against Acinetobacter baumannii (growth observed) (Acinetobacter baumannii; 5 μg/ml) | Activity against Acinetobacter baumannii (growth observed) (Acinetobacter baumannii; 6 μg/ml) | Activity against Acinetobacter baumannii (growth observed) (Acinetobacter baumannii; 7 μg/ml) | Activity against Acinetobacter baumannii (growth observed) (Acinetobacter baumannii; 8 μg/ml) | Activity against Acinetobacter baumannii (growth observed) (Acinetobacter baumannii; 9 μg/ml) | Activity against Acinetobacter baumannii (growth observed) (Acinetobacter baumannii; 10 μg/ml) | Activity against Acinetobacter baumannii (growth observed) (Acinetobacter baumannii; 25 μg/ml) | Activity against Klebesiella pneumonia (growth observed) (Klebesiella pneumonia; 1 μg/ml) | Activity against Klebesiella pneumonia (growth observed) (Klebesiella pneumonia; 2 μg/ml) | Activity against Klebesiella pneumonia (growth observed) (Klebesiella pneumonia; 3 μg/ml) | Activity against Klebesiella pneumonia (growth observed) (Klebesiella pneumonia; 4 μg/ml) | Activity against Klebesiella pneumonia (growth observed) (Klebesiella pneumonia; 5 μg/ml) | Activity against Klebesiella pneumonia (growth observed) (Klebesiella pneumonia; 6 μg/ml) | Activity against Klebesiella pneumonia (growth observed) (Klebesiella pneumonia; 7 μg/ml) | Activity against Klebesiella pneumonia (growth observed) (Klebesiella pneumonia; 8 μg/ml) | Activity against Klebesiella pneumonia (growth observed) (Klebesiella pneumonia; 9 μg/ml) | Activity against Klebesiella pneumonia (growth observed) (Klebesiella pneumonia; 10 μg/ml) | Activity against Klebesiella pneumonia (growth observed) (Klebesiella pneumonia; 25 μg/ml) | Activity against Enterococcus faecium (growth observed) (Enterococcus faecium; 1 μg/ml) | Activity against Enterococcus faecium (growth observed) (Enterococcus faecium; 2 μg/ml) | Activity against Enterococcus faecium (growth observed) (Enterococcus faecium; 3 μg/ml) | Activity against Enterococcus faecium (growth observed) (Enterococcus faecium; 4 μg/ml) | Activity against Enterococcus faecium (growth observed) (Enterococcus faecium; 5 μg/ml) | Activity against Enterococcus faecium (growth observed) (Enterococcus faecium; 6 μg/ml) | Activity against Enterococcus faecium (growth observed) (Enterococcus faecium; 7 μg/ml) | Activity against Enterococcus faecium (growth observed) (Enterococcus faecium; 8 μg/ml) | Activity against Enterococcus faecium (growth observed) (Enterococcus faecium; 9 μg/ml) | Activity against Enterococcus faecium (growth observed) (Enterococcus faecium; 10 μg/ml) | Activity against Enterococcus faecium (growth observed) (Enterococcus faecium; 25 μg/ml)
